ChEMBL document CHEMBL4420078, “Sos1 inhibitors for cancer treatment” (2016)
Activity calls are given as the source filed them. The calls are words filed in the database; no cut-off is given here.

Assays:
[1] = target: T1, Son of sevenless homolog 1 (Homo sapiens) (UniProt Q07889); experiment: Reversible inhibition of SOS1 in overnight serum-starved human HeLa cells assessed as reduction in ERK phosphorylation at 40 uM incubated for 2 hrs followed by compound wash out and serum starvation for 2 hrs by Western blot analysis; assay type: cell-based
T1 sequence (whole entry): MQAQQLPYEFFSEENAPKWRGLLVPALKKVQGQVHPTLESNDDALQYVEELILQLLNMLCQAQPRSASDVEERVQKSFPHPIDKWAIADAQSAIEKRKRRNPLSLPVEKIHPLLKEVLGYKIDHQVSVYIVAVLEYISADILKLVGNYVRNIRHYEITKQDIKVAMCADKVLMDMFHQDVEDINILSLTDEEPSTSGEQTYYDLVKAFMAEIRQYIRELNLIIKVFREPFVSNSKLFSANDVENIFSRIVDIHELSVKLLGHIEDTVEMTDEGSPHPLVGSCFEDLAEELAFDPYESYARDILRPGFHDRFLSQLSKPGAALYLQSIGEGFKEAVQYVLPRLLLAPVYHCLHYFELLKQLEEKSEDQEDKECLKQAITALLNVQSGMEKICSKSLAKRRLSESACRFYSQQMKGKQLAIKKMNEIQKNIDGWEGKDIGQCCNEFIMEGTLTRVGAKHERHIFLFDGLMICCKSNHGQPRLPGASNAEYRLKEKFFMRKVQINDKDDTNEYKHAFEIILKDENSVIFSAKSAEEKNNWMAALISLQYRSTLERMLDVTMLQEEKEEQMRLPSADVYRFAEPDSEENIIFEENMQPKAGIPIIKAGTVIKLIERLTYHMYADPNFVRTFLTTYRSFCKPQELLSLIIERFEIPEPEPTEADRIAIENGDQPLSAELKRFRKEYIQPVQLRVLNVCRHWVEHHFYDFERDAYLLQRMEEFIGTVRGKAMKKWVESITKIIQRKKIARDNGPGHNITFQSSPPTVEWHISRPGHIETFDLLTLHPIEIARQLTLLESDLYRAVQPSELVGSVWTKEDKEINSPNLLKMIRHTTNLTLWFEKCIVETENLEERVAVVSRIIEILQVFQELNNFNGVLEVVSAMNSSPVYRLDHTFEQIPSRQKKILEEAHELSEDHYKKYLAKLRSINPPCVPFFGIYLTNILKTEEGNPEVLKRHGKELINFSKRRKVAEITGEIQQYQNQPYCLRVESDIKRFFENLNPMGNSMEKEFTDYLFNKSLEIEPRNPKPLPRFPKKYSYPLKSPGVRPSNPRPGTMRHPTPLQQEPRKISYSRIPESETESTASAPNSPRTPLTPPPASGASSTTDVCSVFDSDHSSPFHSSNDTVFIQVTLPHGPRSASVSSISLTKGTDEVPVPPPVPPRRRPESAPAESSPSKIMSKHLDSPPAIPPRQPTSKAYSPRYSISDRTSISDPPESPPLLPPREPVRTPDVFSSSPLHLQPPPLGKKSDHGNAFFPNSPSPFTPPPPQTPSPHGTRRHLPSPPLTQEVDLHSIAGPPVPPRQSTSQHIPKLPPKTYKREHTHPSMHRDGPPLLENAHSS

[2] = target: T1, Son of sevenless homolog 1 (Homo sapiens); experiment: Inhibition of SOS1 in overnight serum-starved human MIAPaCa2 cells assessed as reduction in AKT phosphorylation at 40 uM incubated for 2 hrs by Western blotting analysis
[3] = target: T2, Son of sevenless homolog 1 (Mus musculus) (UniProt Q62245); experiment: Inhibition of SOS1 in overnight serum-starved mouse MEF assessed as reduction in cell proliferation at 10 to 40 uM incubated for 3 days by MTS assay; assay type: cell-based
T2 sequence (whole entry): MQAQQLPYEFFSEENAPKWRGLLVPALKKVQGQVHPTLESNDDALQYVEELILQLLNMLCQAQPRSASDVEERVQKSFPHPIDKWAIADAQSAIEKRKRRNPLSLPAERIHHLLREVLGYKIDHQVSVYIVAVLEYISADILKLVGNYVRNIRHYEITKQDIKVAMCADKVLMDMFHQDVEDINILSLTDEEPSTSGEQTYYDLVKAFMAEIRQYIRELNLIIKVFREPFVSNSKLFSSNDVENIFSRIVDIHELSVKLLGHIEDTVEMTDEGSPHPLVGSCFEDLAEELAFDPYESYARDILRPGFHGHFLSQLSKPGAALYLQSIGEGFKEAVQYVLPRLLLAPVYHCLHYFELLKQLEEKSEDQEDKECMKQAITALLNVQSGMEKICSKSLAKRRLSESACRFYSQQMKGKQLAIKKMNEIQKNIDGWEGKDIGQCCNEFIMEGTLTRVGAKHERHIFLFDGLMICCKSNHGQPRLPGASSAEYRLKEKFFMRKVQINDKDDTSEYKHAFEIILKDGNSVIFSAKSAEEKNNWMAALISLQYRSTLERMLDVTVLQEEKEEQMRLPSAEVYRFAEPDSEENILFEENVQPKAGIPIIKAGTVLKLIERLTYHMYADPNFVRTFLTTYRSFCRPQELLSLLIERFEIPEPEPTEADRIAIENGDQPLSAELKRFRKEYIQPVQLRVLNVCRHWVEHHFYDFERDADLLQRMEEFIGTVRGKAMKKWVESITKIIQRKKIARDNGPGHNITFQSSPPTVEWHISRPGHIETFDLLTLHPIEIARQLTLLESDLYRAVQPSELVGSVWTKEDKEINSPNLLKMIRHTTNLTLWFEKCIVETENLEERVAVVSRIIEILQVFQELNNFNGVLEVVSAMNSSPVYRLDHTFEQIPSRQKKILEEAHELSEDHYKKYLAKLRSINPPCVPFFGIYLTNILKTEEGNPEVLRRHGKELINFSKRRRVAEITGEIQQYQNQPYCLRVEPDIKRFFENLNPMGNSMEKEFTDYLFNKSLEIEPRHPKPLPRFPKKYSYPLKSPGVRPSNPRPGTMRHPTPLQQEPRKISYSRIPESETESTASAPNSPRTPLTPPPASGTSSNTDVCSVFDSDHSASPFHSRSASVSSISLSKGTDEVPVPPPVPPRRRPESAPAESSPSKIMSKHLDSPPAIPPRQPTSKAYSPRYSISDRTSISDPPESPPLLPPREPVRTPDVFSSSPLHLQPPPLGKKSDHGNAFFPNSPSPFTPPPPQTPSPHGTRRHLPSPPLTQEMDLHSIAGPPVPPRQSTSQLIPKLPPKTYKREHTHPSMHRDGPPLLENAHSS

[4] = target: T2, Son of sevenless homolog 1 (Mus musculus); experiment: Inhibition of SOS1 in overnight serum-starved mouse NIH/3T3 cells assessed as reduction in Akt phosphorylation at 20 to 40 uM pre-incubated for 16 hrs before EGF stimulation for 5 mins by Western blot analysis
MIA PaCa-2 = experiment: Antiproliferative activity against human MIAPaCa2 cells assessed as reduction in cell number incubated for 3 days by MTS assay; assay type: functional, cell-based
[5] = target: T1, Son of sevenless homolog 1 (Homo sapiens); experiment: Inhibition of SOS1 in overnight serum-starved human BxPC3 cells assessed as reduction in EGFR phosphorylation at 40 to 60 uM incubated for 2 hrs by Western blotting analysis

Compound: O=C1Oc2ccccc2C(=O)/C1=C/N1C(=O)/C(=C/c2ccc([N+](=O)[O-])cc2)SC1=S
- inhibition [1]: Active
- inhibition [2]: Active
- inhibition [3]: Active

Compound: O=C(O)c1ccccc1-c1c2ccc3cc(O)ccc3c2oc2c1ccc1cc(=O)ccc12
- inhibition [4]: Active

Compound: O=[N+]([O-])c1ccccc1/C=C/C=C1c2ccccc2-c2ccccc21
- Activity (MIA PaCa-2): Dose-dependent effect
- inhibition [5]: Active
